According to PMC10825183 (Nature Communications, 2024):
Several values for one entry are separate records, joined by “and”; a condition that tells them apart may be missing. Equal values may be shown once. Read-outs that look alike come from different tables or passages of the source.

Columns and labels:
full length mHCN2 [1] = biological target: T1, full length mHCN2 (Mus musculus, UniProt O88703); settings: read-out: binding affinity BC50, cited from earlier work
T1 construct: to full length mHCN2 and ΔDE (mHCN2 1-640) mutant channels, both expressed in Xenopus oocytes; expressed in transfected cells; host or cells: Xenopus laevis oocytes (cRNA injected; pGEMHE vector); excised macropatches
T1 sequence (O88703 1-863): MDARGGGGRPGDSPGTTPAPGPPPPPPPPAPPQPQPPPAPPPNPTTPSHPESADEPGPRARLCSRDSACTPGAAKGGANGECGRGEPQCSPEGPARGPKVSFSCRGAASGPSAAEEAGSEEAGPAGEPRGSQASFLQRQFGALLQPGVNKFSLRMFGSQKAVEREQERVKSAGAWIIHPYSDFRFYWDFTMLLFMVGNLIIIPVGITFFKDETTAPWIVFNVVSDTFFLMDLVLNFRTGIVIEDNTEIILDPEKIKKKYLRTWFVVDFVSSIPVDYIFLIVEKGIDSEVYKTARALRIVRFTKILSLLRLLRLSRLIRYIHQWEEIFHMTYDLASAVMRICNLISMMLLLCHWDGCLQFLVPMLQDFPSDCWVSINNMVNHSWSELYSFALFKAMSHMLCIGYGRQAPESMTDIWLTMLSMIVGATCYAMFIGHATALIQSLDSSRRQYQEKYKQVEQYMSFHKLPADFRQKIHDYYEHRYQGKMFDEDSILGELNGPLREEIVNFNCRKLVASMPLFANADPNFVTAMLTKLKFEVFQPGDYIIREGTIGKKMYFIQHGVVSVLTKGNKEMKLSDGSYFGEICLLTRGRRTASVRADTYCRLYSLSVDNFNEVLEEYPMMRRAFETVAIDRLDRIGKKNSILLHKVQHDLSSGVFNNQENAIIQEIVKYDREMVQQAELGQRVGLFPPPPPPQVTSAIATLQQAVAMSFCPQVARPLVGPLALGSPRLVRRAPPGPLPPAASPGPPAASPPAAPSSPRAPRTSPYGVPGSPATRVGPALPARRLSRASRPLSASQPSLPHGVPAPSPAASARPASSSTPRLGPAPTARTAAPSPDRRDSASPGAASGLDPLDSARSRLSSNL

ΔDE (mHCN2 1-640) = biological target: T2, ΔDE (mHCN2 1-640) (Mus musculus, UniProt O88703); assay: Confocal patch-clamp fluorometry (cPCF), oocyte macropatches; assay type: binding; settings: for factor of relative fluorescence increase: individual patches
T2 construct: full length mHCN2 and ΔDE (mHCN2 1-640) mutant channels, both expressed in Xenopus oocytes; expressed in transfected cells; host or cells: Xenopus laevis oocytes (cRNA injection, pGEMHE)
T2 sequence (O88703 1-640): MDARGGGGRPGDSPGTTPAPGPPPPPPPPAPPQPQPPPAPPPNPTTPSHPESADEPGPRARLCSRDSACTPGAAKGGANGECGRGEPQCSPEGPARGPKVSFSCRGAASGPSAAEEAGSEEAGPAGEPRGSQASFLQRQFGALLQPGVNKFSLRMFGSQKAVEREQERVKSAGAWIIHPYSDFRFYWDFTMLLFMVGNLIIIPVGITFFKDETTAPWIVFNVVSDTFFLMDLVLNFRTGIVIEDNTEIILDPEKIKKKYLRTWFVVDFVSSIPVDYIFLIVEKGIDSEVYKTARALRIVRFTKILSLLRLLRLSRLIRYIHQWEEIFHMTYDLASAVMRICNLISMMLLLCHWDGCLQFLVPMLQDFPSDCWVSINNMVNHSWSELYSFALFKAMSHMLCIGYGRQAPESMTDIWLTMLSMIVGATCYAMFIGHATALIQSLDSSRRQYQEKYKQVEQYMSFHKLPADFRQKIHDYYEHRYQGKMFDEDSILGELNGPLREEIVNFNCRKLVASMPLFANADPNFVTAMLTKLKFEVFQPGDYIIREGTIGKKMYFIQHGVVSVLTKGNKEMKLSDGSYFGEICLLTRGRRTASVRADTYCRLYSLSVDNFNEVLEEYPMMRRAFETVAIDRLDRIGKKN
Experimental: (§1) We tested this hypothesis using confocal patch-clamp fluorometry (cPCF)[8], measuring current activation and ligand binding in parallel.
(§2) Oocytes were surgically removed from adult females of the South African clawed frog Xenopus laevis under anesthesia (0.3% MS-222 (tricaine methanesulfonate) (Pharmaq, Fordingbridge, UK)). The surgery procedures were carried out in accordance with the German Animal Welfare Act with the approval of the Thuringian State Office for Consumer Protection on 30.08.2013 and 09.05.2018. The oocytes were treated with collagenase A (3 mg/mL; Roche Diagnostics (Grenzach-Wyhlen, Germany)) for 105 min in Ca^2+-free Barth solution containing 82.5 mM NaCl, 2 mM KCl, 1 mM MgCl2, and 5 mM HEPES (pH 7.5). Oocytes of stages IV and V were manually dissected and injected with cRNA-encoding mHCN2 channels of Mus musculus or constructs carrying a point mutation. After injection with cRNA, the oocytes were cultured at 18 °C for 2–10 days in Barth solution containing 84 mM NaCl, 1 mM KCl, 2.4 mM NaHCO3, 0.82 mM MgSO4, 0.41 mM CaCl2, 0.33 mM Ca(NO3)2, 7.5 mM Tris, cefuroxime, and penicillin/streptomycin (pH 7.4). The procedures had approval from the authorized animal ethics committee of the Friedrich Schiller University Jena. The methods were performed according to approved guidelines. Oocytes harvested in our laboratory were complemented with ready-to-use oocytes purchased from EcoCyte Bioscience (Dortmund, Germany).
(§3) The recordings were performed with an LSM 710 confocal microscope (Carl Zeiss, Jena, Germany) and were triggered by the ISO3 software (MFK, Niedernhausen, Germany). To distinguish the fluorescence of the nonbound f1cAMP from that of the bound f1cAMP, a second, chemically related dye, DY647 (Dyomics, Jena, Germany), was also added to the bath solution. The 543- and 633-nm lines of an He-Ne laser were used to excite f1cAMP and DY647, respectively. For quantifying the bound f1cAMP, the fluorescence intensities of the red and the green channels were corrected for small offsets, and the fluorescence in the red channel was scaled to the fluorescence in the green channel in the bath. The difference between the measured green and the scaled red profile for each pixel of the confocal image represents the fraction of the fluorescence signal originating from the bound f1cAMP. The free patch membrane (patch dome) only was used to quantify binding by setting a mask at a region of interest. The fluorescence, F, was averaged over all pixels inside this mask and normalized in each patch concerning the fluorescence at saturating (f1cAMP) and full channel activation (−130 mV), Fmax. The recording rate of the confocal images was 10 Hz.

full length mHCN2 [2] = biological target: T1, full length mHCN2; assay: as above; assay type: binding; settings: for factor of relative fluorescence increase: individual patches
Experimental: as §1, §2, §3

## 8-Cy3B-AHT-cAMP [f1cAMP]
Full length mHCN2 [1]; activated mHCN2 channels
  Kd: 250 nM
Full length mHCN2 [1]; non-activated mHCN2 channels
  Kd: 980 nM
ΔDE (mHCN2 1-640); 0.25 µM f1cAMP, n = 4
  mean increase of fluorescence intensity upon activation, F–130 mV/F−30mV: 2.1 ± 0.3
ΔDE (mHCN2 1-640); fcAMP 0.25 µM
  factor of relative fluorescence increase: 1.6 and 2.4 and 1.7 and 2.6
ΔDE (mHCN2 1-640); fcAMP 2.5 µM
  factor of relative fluorescence increase: 1.1 and 1.3 and 1.2
Full length mHCN2 [2]; 0.25 µM f1cAMP, n = 9
  mean increase of fluorescence intensity upon activation, F–130 mV/F−30mV: 1.6 ± 0.1
Full length mHCN2 [2]; 2.5 µM f1cAMP, n = 7
  F-130 mV/F−30mV: 1.1 ± 0.04
Full length mHCN2 [2]; fcAMP 0.25 µM
  factor of relative fluorescence increase: 1.7 and 1.6 and 1.9 and 2.2 and 1.3 and 1.2
Full length mHCN2 [2]; fcAMP 2.5 µM
  factor of relative fluorescence increase: 0.9 and 1.1 and 1.3 and 1.0 and 1.2
